Data on two compounds can be found in ChEMBL document CHEMBL4507291 (2021).

The subject of assay [1] is ALK tyrosine kinase receptor (Homo sapiens), Q9UM73 [L1196M].
Assay [2] has as its target Ankyrin repeat and protein kinase domain-containing protein 1 (Homo sapiens) (UniProt Q8NFD2).
For assay [3], the target named is Bone morphogenetic protein receptor type-1A (Homo sapiens) (UniProt P36894).
Assay [4] deals with T1, Megakaryocyte-associated tyrosine-protein kinase (Homo sapiens) (UniProt P42679).
T1 sequence (whole entry): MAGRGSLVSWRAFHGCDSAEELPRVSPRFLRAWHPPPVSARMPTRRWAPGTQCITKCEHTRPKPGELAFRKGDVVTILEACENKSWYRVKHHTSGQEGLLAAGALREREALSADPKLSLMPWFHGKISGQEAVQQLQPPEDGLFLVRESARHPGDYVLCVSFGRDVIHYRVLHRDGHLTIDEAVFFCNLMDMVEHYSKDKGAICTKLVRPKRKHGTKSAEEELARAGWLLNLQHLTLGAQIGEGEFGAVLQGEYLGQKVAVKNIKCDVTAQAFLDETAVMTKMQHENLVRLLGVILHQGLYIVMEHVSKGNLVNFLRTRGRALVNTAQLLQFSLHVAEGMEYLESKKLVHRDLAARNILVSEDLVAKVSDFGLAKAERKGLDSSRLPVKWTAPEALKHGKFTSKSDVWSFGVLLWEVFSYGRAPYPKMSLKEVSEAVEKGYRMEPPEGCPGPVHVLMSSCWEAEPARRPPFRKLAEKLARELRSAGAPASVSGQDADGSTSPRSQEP

Assay [5] concerns the target T2, Discoidin domain-containing receptor 2 (Homo sapiens) (UniProt Q16832).
T2 sequence (whole entry): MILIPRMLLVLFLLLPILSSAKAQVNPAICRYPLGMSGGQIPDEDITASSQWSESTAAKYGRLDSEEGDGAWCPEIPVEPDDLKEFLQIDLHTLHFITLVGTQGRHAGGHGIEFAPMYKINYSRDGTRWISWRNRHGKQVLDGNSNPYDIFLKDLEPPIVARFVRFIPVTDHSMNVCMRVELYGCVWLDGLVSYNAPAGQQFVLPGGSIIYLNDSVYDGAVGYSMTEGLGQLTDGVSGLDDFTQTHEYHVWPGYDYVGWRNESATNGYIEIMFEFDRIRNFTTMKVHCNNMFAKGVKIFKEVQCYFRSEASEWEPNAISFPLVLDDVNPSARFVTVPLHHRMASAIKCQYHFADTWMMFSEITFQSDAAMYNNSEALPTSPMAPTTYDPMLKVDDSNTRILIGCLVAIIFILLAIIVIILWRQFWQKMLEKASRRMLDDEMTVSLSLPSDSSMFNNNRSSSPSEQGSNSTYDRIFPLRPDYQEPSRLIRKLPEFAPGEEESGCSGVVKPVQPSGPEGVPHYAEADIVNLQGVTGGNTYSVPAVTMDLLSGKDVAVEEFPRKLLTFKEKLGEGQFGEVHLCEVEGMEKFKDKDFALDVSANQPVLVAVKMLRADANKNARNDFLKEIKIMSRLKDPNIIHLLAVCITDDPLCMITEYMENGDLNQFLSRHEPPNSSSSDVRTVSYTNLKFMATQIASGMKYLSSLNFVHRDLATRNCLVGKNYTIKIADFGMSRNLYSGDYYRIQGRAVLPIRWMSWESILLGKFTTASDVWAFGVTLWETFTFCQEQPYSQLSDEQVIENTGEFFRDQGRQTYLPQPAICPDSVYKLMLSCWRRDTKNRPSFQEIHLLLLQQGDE

For assay [6], the target named is Macrophage-stimulating protein receptor (Homo sapiens) (UniProt Q04912).
Assay [7] concerns the target Serine/threonine-protein kinase Nek3 (Homo sapiens) (UniProt P51956).
The target of assay [8] is Calcium-dependent protein kinase 1 (Plasmodium falciparum) (UniProt P62344).
Assay [9] has as its system Phosphatidylinositol 4,5-bisphosphate 3-kinase catalytic subunit alpha isoform (Homo sapiens), P42336 [Q546K].
In assay [10] the target is T3, Serine/threonine-protein kinase D3 (Homo sapiens) (UniProt O94806).
T3 sequence (whole entry): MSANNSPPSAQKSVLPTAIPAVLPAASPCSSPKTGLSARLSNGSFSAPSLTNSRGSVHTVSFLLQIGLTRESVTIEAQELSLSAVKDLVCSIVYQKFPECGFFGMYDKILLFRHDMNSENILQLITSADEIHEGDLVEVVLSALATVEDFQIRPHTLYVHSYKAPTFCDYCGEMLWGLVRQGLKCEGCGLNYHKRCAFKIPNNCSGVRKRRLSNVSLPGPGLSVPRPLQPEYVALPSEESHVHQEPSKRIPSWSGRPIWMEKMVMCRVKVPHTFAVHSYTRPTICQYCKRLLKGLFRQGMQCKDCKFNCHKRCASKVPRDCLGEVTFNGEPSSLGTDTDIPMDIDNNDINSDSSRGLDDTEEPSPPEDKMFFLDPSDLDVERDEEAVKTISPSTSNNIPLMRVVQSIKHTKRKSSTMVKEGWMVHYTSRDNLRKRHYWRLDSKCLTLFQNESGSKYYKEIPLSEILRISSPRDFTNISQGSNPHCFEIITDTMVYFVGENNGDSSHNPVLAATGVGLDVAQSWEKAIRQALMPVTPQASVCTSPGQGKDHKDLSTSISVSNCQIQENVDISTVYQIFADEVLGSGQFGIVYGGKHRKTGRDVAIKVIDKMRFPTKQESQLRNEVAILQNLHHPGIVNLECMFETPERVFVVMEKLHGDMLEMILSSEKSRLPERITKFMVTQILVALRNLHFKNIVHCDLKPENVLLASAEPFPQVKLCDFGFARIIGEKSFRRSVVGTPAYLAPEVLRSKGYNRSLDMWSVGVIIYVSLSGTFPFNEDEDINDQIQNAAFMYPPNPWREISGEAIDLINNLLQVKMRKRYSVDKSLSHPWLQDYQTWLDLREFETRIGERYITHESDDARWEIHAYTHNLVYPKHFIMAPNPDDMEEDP

Assay [11] concerns the target Ribosomal protein S6 kinase alpha-6 (Homo sapiens) (UniProt Q9UK32).
Where [12] appears, read: Compound concentration 1000.0 nM.
[13] abbreviates: Compound concentration 100.0 nM.

Chain of ALK tyrosine kinase receptor (Homo sapiens), Q9UM73 [L1196M] (Q9UM73 whole entry L1196M, looked up, the tested form may be a part): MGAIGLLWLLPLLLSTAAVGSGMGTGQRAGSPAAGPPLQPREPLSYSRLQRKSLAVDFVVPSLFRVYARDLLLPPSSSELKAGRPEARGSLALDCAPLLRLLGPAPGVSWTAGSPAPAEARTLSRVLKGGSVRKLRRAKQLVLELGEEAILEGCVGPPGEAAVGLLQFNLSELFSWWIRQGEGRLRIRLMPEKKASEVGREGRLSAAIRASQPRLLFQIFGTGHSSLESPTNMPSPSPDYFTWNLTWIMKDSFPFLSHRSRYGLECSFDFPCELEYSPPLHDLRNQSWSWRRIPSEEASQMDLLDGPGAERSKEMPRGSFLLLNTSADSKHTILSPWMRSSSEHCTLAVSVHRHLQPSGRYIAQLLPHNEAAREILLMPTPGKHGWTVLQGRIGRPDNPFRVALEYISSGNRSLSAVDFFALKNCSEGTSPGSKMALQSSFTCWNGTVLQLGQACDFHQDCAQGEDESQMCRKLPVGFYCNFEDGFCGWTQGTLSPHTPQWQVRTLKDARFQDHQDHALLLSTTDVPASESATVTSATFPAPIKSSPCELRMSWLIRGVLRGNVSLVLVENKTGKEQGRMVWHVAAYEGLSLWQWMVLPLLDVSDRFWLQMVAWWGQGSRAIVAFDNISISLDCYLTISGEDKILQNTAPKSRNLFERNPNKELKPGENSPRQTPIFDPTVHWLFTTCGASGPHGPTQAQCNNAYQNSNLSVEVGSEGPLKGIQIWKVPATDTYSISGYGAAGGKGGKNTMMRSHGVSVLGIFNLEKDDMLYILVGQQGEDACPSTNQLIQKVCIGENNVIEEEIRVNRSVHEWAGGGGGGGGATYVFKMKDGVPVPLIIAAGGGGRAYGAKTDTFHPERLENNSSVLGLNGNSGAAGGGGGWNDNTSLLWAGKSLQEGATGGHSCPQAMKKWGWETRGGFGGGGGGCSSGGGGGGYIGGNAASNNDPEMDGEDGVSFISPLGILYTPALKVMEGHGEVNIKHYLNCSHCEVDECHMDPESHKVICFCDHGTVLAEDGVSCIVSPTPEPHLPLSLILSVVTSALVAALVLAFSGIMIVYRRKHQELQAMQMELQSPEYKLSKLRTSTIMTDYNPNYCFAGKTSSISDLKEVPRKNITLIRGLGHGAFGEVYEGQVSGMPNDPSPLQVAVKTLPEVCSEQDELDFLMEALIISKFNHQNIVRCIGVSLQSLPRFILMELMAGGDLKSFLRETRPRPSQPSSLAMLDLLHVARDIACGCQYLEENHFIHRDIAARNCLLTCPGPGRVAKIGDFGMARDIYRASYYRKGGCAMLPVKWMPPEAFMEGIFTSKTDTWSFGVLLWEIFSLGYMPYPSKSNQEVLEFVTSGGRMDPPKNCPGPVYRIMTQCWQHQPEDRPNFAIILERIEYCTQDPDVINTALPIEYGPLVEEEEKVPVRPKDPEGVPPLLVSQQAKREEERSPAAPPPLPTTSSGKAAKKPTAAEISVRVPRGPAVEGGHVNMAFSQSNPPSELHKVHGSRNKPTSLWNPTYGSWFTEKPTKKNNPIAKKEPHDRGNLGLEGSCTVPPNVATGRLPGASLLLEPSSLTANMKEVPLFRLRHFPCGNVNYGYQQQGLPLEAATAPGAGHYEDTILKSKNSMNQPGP
Chain of Bone morphogenetic protein receptor type-1A (Homo sapiens) (P36894 whole entry): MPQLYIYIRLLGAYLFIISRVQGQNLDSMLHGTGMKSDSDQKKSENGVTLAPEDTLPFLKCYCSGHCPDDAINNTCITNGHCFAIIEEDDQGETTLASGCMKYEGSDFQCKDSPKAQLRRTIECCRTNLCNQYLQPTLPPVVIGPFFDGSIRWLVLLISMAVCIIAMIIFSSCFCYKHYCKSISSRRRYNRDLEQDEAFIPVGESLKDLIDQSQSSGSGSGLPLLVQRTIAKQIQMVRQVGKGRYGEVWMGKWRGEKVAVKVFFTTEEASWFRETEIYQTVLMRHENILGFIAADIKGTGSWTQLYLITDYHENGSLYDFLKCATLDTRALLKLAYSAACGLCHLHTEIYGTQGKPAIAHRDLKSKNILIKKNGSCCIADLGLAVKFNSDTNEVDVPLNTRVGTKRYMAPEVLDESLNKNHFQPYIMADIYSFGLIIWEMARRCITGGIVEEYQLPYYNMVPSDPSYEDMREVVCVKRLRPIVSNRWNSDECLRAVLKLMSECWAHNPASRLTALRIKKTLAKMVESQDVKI
Chain of Phosphatidylinositol 4,5-bisphosphate 3-kinase catalytic subunit alpha isoform (Homo sapiens), P42336 [Q546K] (P42336 whole entry Q546K, canonical isoform): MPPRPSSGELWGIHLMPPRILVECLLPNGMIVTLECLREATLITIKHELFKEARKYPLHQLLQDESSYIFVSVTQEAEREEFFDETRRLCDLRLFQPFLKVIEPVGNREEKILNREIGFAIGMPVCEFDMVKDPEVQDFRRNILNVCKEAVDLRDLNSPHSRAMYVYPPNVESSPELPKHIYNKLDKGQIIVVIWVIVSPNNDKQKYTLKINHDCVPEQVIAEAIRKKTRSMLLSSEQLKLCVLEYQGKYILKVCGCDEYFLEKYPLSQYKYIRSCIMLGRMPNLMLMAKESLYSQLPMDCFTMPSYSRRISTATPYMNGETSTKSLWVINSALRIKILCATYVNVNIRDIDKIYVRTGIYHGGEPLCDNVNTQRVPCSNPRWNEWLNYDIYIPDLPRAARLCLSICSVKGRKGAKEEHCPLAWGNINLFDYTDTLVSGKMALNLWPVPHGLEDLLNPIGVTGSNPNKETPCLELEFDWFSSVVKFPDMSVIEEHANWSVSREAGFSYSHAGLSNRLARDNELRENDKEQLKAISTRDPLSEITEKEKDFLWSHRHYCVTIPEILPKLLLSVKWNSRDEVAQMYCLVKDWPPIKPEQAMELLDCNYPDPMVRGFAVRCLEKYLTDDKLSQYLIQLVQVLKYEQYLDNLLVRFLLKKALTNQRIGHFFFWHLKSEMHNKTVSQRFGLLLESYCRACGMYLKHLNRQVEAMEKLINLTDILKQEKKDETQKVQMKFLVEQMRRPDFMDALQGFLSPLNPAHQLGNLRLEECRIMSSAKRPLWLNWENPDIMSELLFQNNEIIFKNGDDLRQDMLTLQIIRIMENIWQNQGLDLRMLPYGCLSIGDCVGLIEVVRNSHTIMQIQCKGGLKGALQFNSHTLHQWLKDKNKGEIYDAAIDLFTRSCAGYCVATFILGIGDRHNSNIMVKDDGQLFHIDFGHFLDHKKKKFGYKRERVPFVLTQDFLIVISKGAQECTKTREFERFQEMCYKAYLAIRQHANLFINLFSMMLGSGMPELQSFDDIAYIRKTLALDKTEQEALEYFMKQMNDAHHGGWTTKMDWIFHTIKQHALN
Chain of Serine/threonine-protein kinase Nek3 (Homo sapiens) (P51956 whole entry): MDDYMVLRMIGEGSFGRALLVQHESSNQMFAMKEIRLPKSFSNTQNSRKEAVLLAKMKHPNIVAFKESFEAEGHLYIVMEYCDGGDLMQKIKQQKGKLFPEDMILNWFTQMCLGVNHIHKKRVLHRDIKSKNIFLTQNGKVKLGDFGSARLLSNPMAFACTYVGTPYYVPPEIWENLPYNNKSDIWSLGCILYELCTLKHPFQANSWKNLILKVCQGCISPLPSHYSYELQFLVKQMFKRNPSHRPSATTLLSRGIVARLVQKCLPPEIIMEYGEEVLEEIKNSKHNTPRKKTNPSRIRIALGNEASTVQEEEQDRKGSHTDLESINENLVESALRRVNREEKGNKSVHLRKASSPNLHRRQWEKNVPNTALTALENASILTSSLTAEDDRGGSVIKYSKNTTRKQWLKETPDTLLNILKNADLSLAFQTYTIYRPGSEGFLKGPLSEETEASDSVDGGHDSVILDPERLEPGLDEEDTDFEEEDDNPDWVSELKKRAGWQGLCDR
Chain of Ankyrin repeat and protein kinase domain-containing protein 1 (Homo sapiens) (Q8NFD2 whole entry, the tested form may be a part): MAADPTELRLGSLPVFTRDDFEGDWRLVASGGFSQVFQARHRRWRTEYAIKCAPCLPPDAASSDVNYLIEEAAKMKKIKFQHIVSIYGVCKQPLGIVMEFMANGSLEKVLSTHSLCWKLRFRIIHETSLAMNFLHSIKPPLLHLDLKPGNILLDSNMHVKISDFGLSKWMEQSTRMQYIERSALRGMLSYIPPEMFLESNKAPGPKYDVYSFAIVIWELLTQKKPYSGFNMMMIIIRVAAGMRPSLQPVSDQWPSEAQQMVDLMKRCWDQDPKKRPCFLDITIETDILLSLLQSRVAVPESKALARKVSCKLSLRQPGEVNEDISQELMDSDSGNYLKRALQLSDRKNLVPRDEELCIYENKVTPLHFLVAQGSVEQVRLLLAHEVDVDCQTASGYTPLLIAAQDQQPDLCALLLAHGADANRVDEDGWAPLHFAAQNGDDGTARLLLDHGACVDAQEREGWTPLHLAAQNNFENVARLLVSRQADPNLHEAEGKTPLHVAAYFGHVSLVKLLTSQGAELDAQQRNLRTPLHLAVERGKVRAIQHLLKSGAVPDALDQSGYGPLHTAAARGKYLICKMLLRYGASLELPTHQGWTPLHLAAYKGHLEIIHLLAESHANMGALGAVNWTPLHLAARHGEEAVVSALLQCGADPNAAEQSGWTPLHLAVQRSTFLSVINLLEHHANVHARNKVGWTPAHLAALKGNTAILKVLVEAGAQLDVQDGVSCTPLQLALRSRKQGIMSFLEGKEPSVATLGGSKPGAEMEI
Chain of Calcium-dependent protein kinase 1 (Plasmodium falciparum) (P62344 2-524 limits assumed): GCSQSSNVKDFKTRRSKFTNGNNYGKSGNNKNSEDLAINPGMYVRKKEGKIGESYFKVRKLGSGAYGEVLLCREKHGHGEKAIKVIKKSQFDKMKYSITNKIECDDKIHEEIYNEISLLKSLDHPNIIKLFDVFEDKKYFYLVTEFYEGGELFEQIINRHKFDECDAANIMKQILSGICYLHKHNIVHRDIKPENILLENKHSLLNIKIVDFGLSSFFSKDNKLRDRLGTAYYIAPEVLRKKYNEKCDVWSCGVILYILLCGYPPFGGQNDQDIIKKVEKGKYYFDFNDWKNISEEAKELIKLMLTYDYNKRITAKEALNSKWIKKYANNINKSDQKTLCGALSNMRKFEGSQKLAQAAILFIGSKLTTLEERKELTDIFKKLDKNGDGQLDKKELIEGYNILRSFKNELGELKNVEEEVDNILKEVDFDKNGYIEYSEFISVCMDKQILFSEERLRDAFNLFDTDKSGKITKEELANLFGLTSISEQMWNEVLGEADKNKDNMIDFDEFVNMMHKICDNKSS

As to `C[C@@H]1CN(c2cc(-c3nn(C)c4ccc(OC5(C)CC5)cc34)ncn2)C[C@H](C)O1` [MLi-2-NC], the residual activity in assay [1] (setting [12]) is 98%; in assay [2] (setting [12]), 67%; in assay [3] (setting [12]), 85%; in assay [4] (setting [12]), 80%; in assay [5] (setting [12]) it was 79%; in assay [6] (setting [12]), 100%. Further, the residual activity in assay [7] (setting [12]) is 99%; in assay [8] (setting [12]) it was 83%; in [9] (setting [12]), 39%; in assay [10] (setting [12]), 64%; in assay [11] (setting [12]), 78%.
On to `C[C@@H]1CN(c2cc(-c3n[nH]c4ccc(OC5(C)CC5)cc34)ncn2)C[C@H](C)O1` [MLi-2], for which the residual activity in assay [1] (setting [13]) is 78%; in [2] (setting [13]), 79%; in [3] (setting [13]) it was 100%; in assay [4] (setting [13]), 94%; in [5] (setting [13]), 82%; in [6] (setting [13]) it was 100%. The residual activity in [7] (setting [13]) is 76%; in assay [8] (setting [13]), 94%; in [9] (setting [13]), 69%; in assay [10] (setting [13]), 82%; in [11] (setting [13]), 77%.
